Laboratory results as given in patent US6737383B1, “Herbicidal oxadiazolidines” (priority 1999, dated 2004).

Tests used:
surinam grass = assay: Test B pre/postemergence surinam grass; type: in vivo, Brachiaria decumbens
Outline: (§1)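 Response is a visual 0-to-10 score relative to untreated plants, where 0 means no effect and 10 means complete control, taken twelve to sixteen days after application. Treatments went onto soil at planting and onto foliage of 1- to 4-leaf plants, using a surfactant-containing non-phytotoxic solvent.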

corn = assay: Test B pre/postemergence corn; type: in vivo, Zea mays; conditions: for Corn plant response rating: scale of 0 to 10 where 0 is no effect and 10 is complete control
Outline: as §1

blackgrass = assay: Test B pre/postemergence blackgrass; type: in vivo, Alopecurus myosuroides
Outline: as §1

wild oat = assay: Test B pre/postemergence wild oat; type: in vivo, Avena fatua; conditions: for Wild oats plant response rating: scale of 0 to 10 where 0 is no effect and 10 is complete control
Outline: as §1

bedstraw = assay: Test B pre/postemergence bedstraw; type: in vivo, Galium aparine
Outline: as §1

giant foxtail = assay: Test B pre/postemergence giant foxtail; type: in vivo, Setaria faberii; conditions: for Giant foxtail plant response rating: scale of 0 to 10 where 0 is no effect and 10 is complete control
Outline: as §1

morningglory = assay: Test B pre/postemergence morningglory; type: in vivo, Ipomoea hederacea; conditions: for Morningglory plant response rating: scale of 0 to 10 where 0 is no effect and 10 is complete control
Outline: as §1

sugar beet = assay: Test B pre/postemergence sugar beet; type: in vivo, Beta vulgaris; conditions: for Sugarbeets plant response rating: scale of 0 to 10 where 0 is no effect and 10 is complete control
Outline: as §1

wheat = assay: Test B pre/postemergence wheat; type: in vivo, Triticum aestivum; conditions: for Wheat plant response rating: scale of 0 to 10 where 0 is no effect and 10 is complete control
Outline: as §1

pigweed = assay: Test B pre/postemergence pigweed; type: in vivo, Amaranthus retroflexus; conditions: for Redroot pigweed plant response rating: scale of 0 to 10 where 0 is no effect and 10 is complete control
Outline: as §1

velvetleaf = assay: Test B pre/postemergence velvetleaf; type: in vivo, Abutilon theophrasti; conditions: for Velvetleaf plant response rating: scale of 0 to 10 where 0 is no effect and 10 is complete control
Outline: as §1

rape = assay: Test B pre/postemergence rape; type: in vivo, Brassica napus; conditions: for Rape plant response rating: scale of 0 to 10 where 0 is no effect and 10 is complete control
Outline: as §1

rice = assay: Test B flood test rice; type: in vivo, Oryza sativa
Outline: (§2)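 Flood test on plants grown to the 2-leaf stage; treated plants kept in greenhouse twelve to sixteen days, then visually rated against controls on a 0 (no effect) to 10 (complete control) scale.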

cocklebur = assay: Test B pre/postemergence cocklebur; type: in vivo, Xanthium strumarium; conditions: for Cocklebur plant response rating: scale of 0 to 10 where 0 is no effect and 10 is complete control
Outline: as §1

smallflower flatsedge = assay: Test B flood test smallflower flatsedge; type: in vivo, Cyperus difformis
Outline: as §2

soybean = assay: Test B pre/postemergence soybean; type: in vivo, Glycine max; conditions: for Soybean plant response rating: scale of 0 to 10 where 0 is no effect and 10 is complete control
Outline: as §1

[1] = Postemergence, Rate 125 g/ha, scale 0 to 10, 0 is no effect, 10 is complete control
[2] = Preemergence, Rate 62 g/ha, scale of 0 to 10 where 0 is no effect and 10 is complete control
[3] = Preemergence, Rate 250 g/ha, scale of 0 to 10 where 0 is no effect and 10 is complete control
[4] = Preemergence, Rate 500 g/ha, scale of 0 to 10 where 0 is no effect and 10 is complete control
[5] = Rate 62 g/ha, Postemergence, scale of 0 to 10 where 0 is no effect and 10 is complete control
[6] = Rate 250 g/ha, Postemergence, scale of 0 to 10 where 0 is no effect and 10 is complete control
[7] = Rate 500 g/ha, Postemergence, scale 0 to 10, 0 no effect, 10 complete control
[8] = Rate 62 g/ha, headed Pre-emergence (flood test species), scale 0 to 10 (0 no effect, 10 complete control)
[9] = Rate 125 g/ha, Pre-emergence, flood test species, scale 0 to 10 where 0 is no effect and 10 is complete control
[10] = Rate 250 g/ha, Pre-emergence, flood-test species, scale 0 to 10, 0 is no effect, 10 is complete control
[11] = Rate 500 g/ha, Pre-emergence, flood test species, scale 0 to 10 (0 no effect, 10 complete control)

CC(C)N(C(=O)n1oc(=O)n(C2CCCCCC2)c1=O)c1ccc(Cl)cc1 [Compound 339]
Plant response rating, B. signalgrass (surinam grass; [1]): 0 | B. signalgrass plant response rating (surinam grass; [2]): 0 | B. signalgrass plant response rating (0 to 10 scale, 0 is no effect, 10 is complete control) (surinam grass; Preemergence, Rate 125 g/ha): 0 | B. signalgrass plant response rating (surinam grass; [3]): 0 | B. signalgrass plant response rating (surinam grass; [4]): 0 | B. signalgrass plant response rating (surinam grass; [5]): 0 | Plant response rating, B. signalgrass (surinam grass; [6]): 0 | Plant response rating, B. signalgrass (surinam grass; [7]): 0 | Plant response rating, Corn (corn; [1]): 0 | Corn plant response rating (corn; Preemergence, Rate 62 g/ha): 0 | Corn plant response rating (0 to 10 scale) (corn; Preemergence, Rate 125 g/ha): 0 | Corn plant response rating (corn; Preemergence, Rate 250 g/ha): 0 | Corn plant response rating (corn; Preemergence, Rate 500 g/ha): 0 | Corn plant response rating (corn; Rate 62 g/ha, Postemergence): 0 | Plant response rating, Corn (corn; [7]): 0 | Plant response rating, Blackgrass (blackgrass; [1]): 0 | Blackgrass plant response rating (blackgrass; [2]): 0 | Blackgrass plant response rating (0 to 10 scale) (blackgrass; Preemergence, Rate 125 g/ha): 0 | Blackgrass plant response rating (blackgrass; [3]): 2 | Blackgrass plant response rating (blackgrass; [4]): 3 | Blackgrass plant response rating (blackgrass; [5]): 0 | Plant response rating, Blackgrass (blackgrass; [6]): 0 | Plant response rating, Blackgrass (blackgrass; [7]): 2 | Plant response rating, Wild oats (wild oat; [1]): 0 | Wild oats plant response rating (wild oat; Preemergence, Rate 62 g/ha): 0 | Wild oats plant response rating (0 to 10 scale) (wild oat; Preemergence, Rate 125 g/ha): 0 | Wild oats plant response rating (wild oat; Preemergence, Rate 250 g/ha): 0 | Wild oats plant response rating (wild oat; Preemergence, Rate 500 g/ha): 0 | Wild oats plant response rating (wild oat; Rate 62 g/ha, Postemergence): 0 | Plant response rating, Wild oats (wild oat; [7]): 0 | Plant response rating, Bedstraw (bedstraw; [1]): 2 | Bedstraw plant response rating (bedstraw; [2]): 0 | Bedstraw plant response rating (0 to 10 scale) (bedstraw; Preemergence, Rate 125 g/ha): 0 | Bedstraw plant response rating (bedstraw; [3]): 0 | Bedstraw plant response rating (bedstraw; [4]): 0 | Bedstraw plant response rating (bedstraw; [5]): 0 | Plant response rating, Bedstraw (bedstraw; [6]): 7 | Plant response rating, Bedstraw (bedstraw; [7]): 8 | Plant response rating, Giant foxtail (giant foxtail; [1]): 0 | Giant foxtail plant response rating (giant foxtail; Preemergence, Rate 62 g/ha): 1 | Giant foxtail plant response rating (0 to 10 scale) (giant foxtail; Preemergence, Rate 125 g/ha): 3 | Giant foxtail plant response rating (giant foxtail; Preemergence, Rate 250 g/ha): 9 | Giant foxtail plant response rating (giant foxtail; Preemergence, Rate 500 g/ha): 10 | Giant foxtail plant response rating (giant foxtail; Rate 62 g/ha, Postemergence): 0 | Plant response rating, Giant foxtail (giant foxtail; [7]): 0 | Plant response rating, Morningglory (morningglory; [1]): 2 | Morningglory plant response rating (morningglory; Preemergence, Rate 62 g/ha): 0 | Morningglory plant response rating (0 to 10 scale) (morningglory; Preemergence, Rate 125 g/ha): 0 | Morningglory plant response rating (morningglory; Preemergence, Rate 250 g/ha): 0 | Morningglory plant response rating (morningglory; Preemergence, Rate 500 g/ha): 0 | Morningglory plant response rating (morningglory; Rate 62 g/ha, Postemergence): 2 | Plant response rating, Morningglory (morningglory; [7]): 10 | Plant response rating, Sugarbeets (sugar beet; [1]): 0 | Sugarbeets plant response rating (sugar beet; Preemergence, Rate 62 g/ha): 0 | Sugarbeets plant response rating (0 to 10 scale) (sugar beet; Preemergence, Rate 125 g/ha): 0 | Sugarbeets plant response rating (sugar beet; Preemergence, Rate 250 g/ha): 0 | Sugarbeets plant response rating (sugar beet; Preemergence, Rate 500 g/ha): 0 | Sugarbeets plant response rating (sugar beet; Rate 62 g/ha, Postemergence): 0 | Plant response rating, Sugarbeets (sugar beet; [7]): 0 | Plant response rating, Wheat (wheat; [1]): 0 | Wheat plant response rating (wheat; Preemergence, Rate 62 g/ha): 0 | Wheat plant response rating (0 to 10 scale) (wheat; Preemergence, Rate 125 g/ha): 0 | Wheat plant response rating (wheat; Preemergence, Rate 250 g/ha): 0 | Wheat plant response rating (wheat; Preemergence, Rate 500 g/ha): 0 | Wheat plant response rating (wheat; Rate 62 g/ha, Postemergence): 0 | Plant response rating, Wheat (wheat; [7]): 0 | Plant response rating, Redroot pigweed (pigweed; [1]): 2 | Redroot pigweed plant response rating (pigweed; Preemergence, Rate 62 g/ha): 0 | Redroot pigweed plant response rating (0 to 10 scale) (pigweed; Preemergence, Rate 125 g/ha): 0 | Redroot pigweed plant response rating (pigweed; Preemergence, Rate 250 g/ha): 0 | Redroot pigweed plant response rating (pigweed; Preemergence, Rate 500 g/ha): 0 | Redroot pigweed plant response rating (pigweed; Rate 62 g/ha, Postemergence): 0 | Plant response rating, Redroot pigweed (pigweed; [7]): 6 | Plant response rating, Velvetleaf (velvetleaf; [1]): 0 | Velvetleaf plant response rating (velvetleaf; Preemergence, Rate 62 g/ha): 0 | Velvetleaf plant response rating (0 to 10 scale) (velvetleaf; Preemergence, Rate 125 g/ha): 0 | Velvetleaf plant response rating (velvetleaf; Preemergence, Rate 250 g/ha): 0 | Velvetleaf plant response rating (velvetleaf; Preemergence, Rate 500 g/ha): 0 | Velvetleaf plant response rating (velvetleaf; Rate 62 g/ha, Postemergence): 0 | Plant response rating, Velvetleaf (velvetleaf; [7]): 0 | Plant response rating, Rape (rape; [1]): 1 | Rape plant response rating (rape; Preemergence, Rate 62 g/ha): 0 | Rape plant response rating (0 to 10 scale) (rape; Preemergence, Rate 125 g/ha): 0 | Rape plant response rating (rape; Preemergence, Rate 250 g/ha): 0 | Rape plant response rating (rape; Preemergence, Rate 500 g/ha): 0 | Rape plant response rating (rape; Rate 62 g/ha, Postemergence): 0 | Plant response rating, Rape (rape; [7]): 5 | Rice plant response rating (rice; [8]): 0 | Rice plant response rating (rice; [9]): 0 | Rice plant response rating (rice; [10]): 0 | Rice plant response rating (rice; [11]): 1 | Plant response rating, Cocklebur (cocklebur; [1]): 0 | Cocklebur plant response rating (cocklebur; Preemergence, Rate 62 g/ha): 0 | Cocklebur plant response rating (0 to 10 scale) (cocklebur; Preemergence, Rate 125 g/ha): 0 | Cocklebur plant response rating (cocklebur; Preemergence, Rate 250 g/ha): 0 | Cocklebur plant response rating (cocklebur; Preemergence, Rate 500 g/ha): 0 | Cocklebur plant response rating (cocklebur; Rate 62 g/ha, Postemergence): 0 | Plant response rating, Cocklebur (cocklebur; [7]): 0 | S. Flatsedge plant response rating (smallflower flatsedge; [8]): 0 | S. Flatsedge plant response rating (smallflower flatsedge; [9]): 0 | S. Flatsedge plant response rating (smallflower flatsedge; [10]): 0 | S. Flatsedge plant response rating (smallflower flatsedge; [11]): 1 | Plant response rating, Soybean (soybean; [1]): 1 | Soybean plant response rating (soybean; Preemergence, Rate 62 g/ha): 0 | Soybean plant response rating (0 to 10 scale) (soybean; Preemergence, Rate 125 g/ha): 0 | Soybean plant response rating (soybean; Preemergence, Rate 250 g/ha): 0 | Soybean plant response rating (soybean; Preemergence, Rate 500 g/ha): 0 | Soybean plant response rating (soybean; Rate 62 g/ha, Postemergence): 1 | Plant response rating, Soybean (soybean; [7]): 4
